Measurements taken from patent US8710198B2, “Caprazene as a novel compound and derivatives thereof, and caprazol as a novel compound and derivatives thereof” (Meiji Seika Pharma Co., Ltd., priority 2003, dated 2014).

Tests used:
Type in all cases: cell-based
[1] = tested on: Staphylococcus aureus FDA209P; experiment: Minimum growth inhibitory concentration on agar culture medium by serial dilution method (Japanese Society of Chemotherapy)
Experimental: (§1) Minimum growth inhibitory concentrations (mcg/ml) of caprazene-1′″-amide derivatives of the formula (II) against some of microorganisms were measured on an agar culture medium by a serial dilution method according to the standard method as provided by Japanese Society of Chemotherapy. For the cultivation of Mycobacterium smegmatis (one of […]), however, there was used an agar culture medium with the addition of 1% glycerine (the same applies to in the following tests).
(§2) Minimum growth inhibitory concentrations (mcg/ml) of some of the caprazene-1′″-ester derivative of the formula (III) against some of microorganisms were measured on an agar culture medium by a serial dilution method according to the standard method as provided by Japanese Society of Chemotherapy.
(§3) Minimum growth inhibitory concentrations (mcg/ml) of some of the caprazol-1′″-amide derivative of the formula (V) against a variety of microorganisms were measured on an agar medium by a serial dilution method according to the standard method as provided by Japanese Society of Chemotherapy.
(§4) Minimum growth inhibitory concentrations (mcg/ml) of some of the caprazol-1′″-amide-3′″-ester derivative of the formula (VI) against a variety of microorganisms were measured on an agar medium by a serial dilution method according to the standard method as provided by Japanese Society of Chemotherapy.
(§5) Minimum growth inhibitory concentrations (mcg/ml) of some of the caprazol-3′″-ester derivative or caprazol-1′″-ester-3′″-ester derivative of the formula (VII) against a variety of microorganisms were measured on an agar medium by a serial dilution method according to the standard method as provided by Japanese Society of Chemotherapy.
(§6) Minimum growth inhibitory concentrations (mcg/ml) of some of the derivative of the formula (VIII) against a variety of microorganisms were measured on an agar medium by a serial dilution method according to the standard method as provided by Japanese Society of Chemotherapy.

[2] = tested on: Micrococcus luteus FDA16; experiment: as above
Experimental: as §1, §2, §3, §4, §5, §6

[3] = tested on: Mycobacterium smegmatis ATCC607; experiment: Minimum growth inhibitory concentration on agar culture medium with 1% glycerine by serial dilution method; conditions: agar culture medium with the addition of 1% glycerine
Experimental: as §1, §2, §3, §4, §5

| Compound | Minimum growth inhibitory concentration (mcg/ml) against bacteria Staphylococcus aureus FDA209P [1] | Minimum growth inhibitory concentration (mcg/ml) against bacteria Micrococcus luteus FDA16 [2] | Minimum growth inhibitory concentration (mcg/ml) against bacteria Mycobacterium smegmatis ATCC607 [3] |
| --- | --- | --- | --- |
| CCCCCCCCC=CCCCCCCCCNC(=O)C1C(O)CN(C)C(C(OC2OC(CN)C(O)C2O)C2OC(n3ccc(=O)[nH]c3=O)C(O)C2O)C(=O)N1C (stereo not drawn) [Compound V-R] | 12.5 µg/mL | 25 µg/mL | 6.25 µg/mL |
| CCCCCCCCCCC(=O)OC1CN(C)C(C(OC2OC(CN)C(O)C2O)C2OC(n3ccc(=O)[nH]c3=O)C(O)C2O)C(=O)N(C)C1C(=O)O (stereo not drawn) [Compound VII-E] | 1.56 µg/mL | 1.56 µg/mL | 0.39 µg/mL |
| CCCCCCCCCC(=O)OC1CN(C)C(C(OC2OC(CN)C(O)C2O)C2OC(n3ccc(=O)[nH]c3=O)C(O)C2O)C(=O)N(C)C1C(=O)O (stereo not drawn) [Compound VII-D] | 3.13 µg/mL | 3.13 µg/mL | 0.78 µg/mL |
| CCCCCCCCCCCCCCCCCNC(=O)C1=CCN(C)C(C(OC2OC(CN)C(O)C2O)C2OC(n3ccc(=O)[nH]c3=O)C(O)C2O)C(=O)N1C (stereo not drawn) [Compound II-L] | 1.56 µg/mL | 1.56 µg/mL | 3.13 µg/mL |
| CCCCCCCCCCCCCOC(=O)C1=CCN(C)C(C(OC2OC(CN)C(O)C2O)C2OC(n3ccc(=O)[nH]c3=O)C(O)C2O)C(=O)N1C (stereo not drawn) [Compound III-BB] | 3.13 µg/mL | 3.13 µg/mL | 12.5 µg/mL |
| CCCCCCCCCCCCCCCCCCCCCNC(=O)C1=CCN(C)C(C(OC2OC(CN)C(O)C2O)C2OC(n3ccc(=O)[nH]c3=O)C(O)C2O)C(=O)N1C (stereo not drawn) [Compound II-P] | 6.25 µg/mL | 3.13 µg/mL | 50 µg/mL |
| CCCCCCCCCCCCNC(=O)C1C(OC(=O)CCCCCCCCCCC)CN(C)C(C(OC2OC(CN)C(O)C2O)C2OC(n3ccc(=O)[nH]c3=O)C(O)C2O)C(=O)N1C (stereo not drawn) [Compound VI-G, caprazol-1′″-dodecylamide-3′″-dodecanoylester derivative] | 25 µg/mL | 3.13 µg/mL | 6.25 µg/mL |
| CCCCCCC(=O)OC1CN(C)C(C(OC2OC(CN)C(O)C2O)C2OC(n3ccc(=O)[nH]c3=O)C(O)C2O)C(=O)N(C)C1C(=O)O (stereo not drawn) [Compound VII-A] | 25 µg/mL | >50 µg/mL | 1.56 µg/mL |
| CCCCCCCCC=CCCCCCCCCNC(=O)C1=CCN(C)C(C(OC2OC(CN)C(O)C2O)C2OC(n3ccc(=O)[nH]c3=O)C(O)C2O)C(=O)N1C (stereo not drawn) [Compound II-R] | 1.56 µg/mL | 1.56 µg/mL | 1.56 µg/mL |
| CCCCCCNC(=O)C1C(O)CN(C)C(C(OC2OC(CN)C(O)C2O)C2OC(n3ccc(=O)[nH]c3=O)C(O)C2O)C(=O)N1C (stereo not drawn) [Compound V-A] | 50 µg/mL | 50 µg/mL | 12.5 µg/mL |
| CCCCCCCCCCCCNC(=O)C1=CCN(C)C(C(OC2OC(CNC(=O)OC(C)(C)C)C(O)C2O)C2OC(n3ccc(=O)[nH]c3=O)C(O)C2O)C(=O)N1C (stereo not drawn) [Compound II-G-N-Boc] | 50 µg/mL | 50 µg/mL | 50 µg/mL |
| CCCCCCCCCCNC(=O)C1C(O)CN(C)C(C(OC2OC(CN)C(O)C2O)C2OC(n3ccc(=O)[nH]c3=O)C(O)C2O)C(=O)N1C (stereo not drawn) [Compound V-E] | 25 µg/mL | 25 µg/mL | 6.25 µg/mL |
| CCCCCCCCCCCC(=O)OC1CN(C)C(C(OC2OC(CN)C(O)C2O)C2OC(n3ccc(=O)[nH]c3=O)C(O)C2O)C(=O)N(C)C1C(=O)O (stereo not drawn) [Compound VII-F, caprazol-3′″-dodecanoyl Ester Derivative] | 0.78 µg/mL | 3.13 µg/mL | 0.78 µg/mL |
| CCCCCCCCCCCCCCNC(=O)C1=CCN(C)C(C(OC2OC(CNC(=O)OC(C)(C)C)C(O)C2O)C2OC(n3ccc(=O)[nH]c3=O)C(O)C2O)C(=O)N1C (stereo not drawn) [Compound II-I-N-Boc] | 12.5 µg/mL | 12.5 µg/mL | 25 µg/mL |
| CCCCCCCCCCCCCNC(=O)C1=CCN(C)C(C(OC2OC(CN)C(O)C2O)C2OC(n3ccc(=O)[nH]c3=O)C(O)C2O)C(=O)N1C (stereo not drawn) [Compound II-H] | 3.13 µg/mL | 0.78 µg/mL | <0.20 µg/mL |
| CCCCCCCCCCCNC(=O)C1C(O)CN(C)C(C(OC2OC(CN)C(O)C2O)C2OC(n3ccc(=O)[nH]c3=O)C(O)C2O)C(=O)N1C (stereo not drawn) [Compound V-F] | 12.5 µg/mL | 25 µg/mL | 6.25 µg/mL |
| CCCCCCCCCCCc1ccc(NC(=O)C2=CCN(C)C(C(OC3OC(CN)C(O)C3O)C3OC(n4ccc(=O)[nH]c4=O)C(O)C3O)C(=O)N2C)cc1 (stereo not drawn) [Compound II-11] | 3.13 µg/mL | 0.39 µg/mL | 3.13 µg/mL |
